Experimental data taken from patent US11033527B2, “Non-hormonal treatment of the genitourinary syndrome of menopause” (IMMUGEN PHARMA LLC, priority 2018, dated 2021).
Values joined by “and” are separate entries in the source; they are usually repeats but may differ in a detail not shown here. Equal values may be shown once.

Experiments:
vaginal tissue construct = assay: microarray analysis of differential gene expression (Affymetrix Human Gene 1.0 ST arrays), tissues treated for seven days via culture medium; type: cell-based
Excerpt: The data from the Affymetrix Human Gene 1.0 ST arrays were normalized using the Robust Multiarray Average (RMA) algorithm and a Chip Definition File (CDF) that maps the probes on the array to unique Entrez Gene identifiers. The result is a matrix in which each column corresponds to a sample. The expression values are log 2-transformed by default.
By using a fold change >1.5, an analysis of differentially expressed genes was done to identify those genes which were involved in the cornified envelope, keratinocyte differentiation, cell differentiation, epidermis development, epithelial cell differentiation, junctional proteins and signaling, immune response and innate immune response.

[1] = target: endocannabinoid receptor type 2 (CB2) (Homo sapiens, UniProt P34972); settings: cited from earlier work
[2] = down-regulated by this fold, given without sign

Sequence of endocannabinoid receptor type 2 (CB2) (P34972 whole entry, species assumed): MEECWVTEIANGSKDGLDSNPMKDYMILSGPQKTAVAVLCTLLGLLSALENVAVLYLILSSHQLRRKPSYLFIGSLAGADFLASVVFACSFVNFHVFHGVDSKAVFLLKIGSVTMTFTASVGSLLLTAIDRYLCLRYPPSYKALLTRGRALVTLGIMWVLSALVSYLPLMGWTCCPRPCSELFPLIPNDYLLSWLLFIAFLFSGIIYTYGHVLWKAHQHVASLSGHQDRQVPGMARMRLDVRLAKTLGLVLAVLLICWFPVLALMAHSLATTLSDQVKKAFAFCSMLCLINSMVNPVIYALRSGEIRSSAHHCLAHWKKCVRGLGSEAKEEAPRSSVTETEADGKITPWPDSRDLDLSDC

For `CCCC(C)(C)c1ccc2c(c1)OC(C)(C)[C@@H]1CC=C(C)C[C@@H]21` [JWH-133], the “SPRR2D Fold Change” value (vaginal tissue construct) was 2.839 fold, the “WFDC12 Fold Change” value (vaginal tissue construct) was 5.534 fold and the CFB down-regulation (vaginal tissue construct; [2]) was 2.167 fold. The CFH down-regulation (vaginal tissue construct; [2]) was 1.681 fold, the “AGR2 Fold Change” value (vaginal tissue construct; gene Anterior gradient homolog 2 (Xenopus laevis)) was −2.5 fold and the “CXCL8 Expr Fold Change” value (vaginal tissue construct; gene C-X-C motif chemokine ligand 8) was −2.155 fold. The “CXCL17 Expr Fold Change” value (vaginal tissue construct; gene C-X-C motif chemokine ligand 17) was −1.881 fold, the “CXCR2 Expr Fold Change” value (vaginal tissue construct; gene C-X-C motif chemokine receptor 2) was 2.121 fold and the “CD14 Expr Fold Change” value (vaginal tissue construct; gene CD14 molecule) was −2.286 fold. For the same compound, the “CD74 Expr Fold Change” value (vaginal tissue construct; gene CD74 molecule) was −1.676 fold, the “CD151 Expr Fold Change” value (vaginal tissue construct; gene CD151 molecule (Raph blood group)) was −1.653 fold and the “CD244 Expr Fold Change” value (vaginal tissue construct; gene CD244 molecule) was 2.489 fold. The “CDSN Fold Change” value (vaginal tissue construct; gene Corneodesmosin) was 6.888 fold, the “CCL28 Expr Fold Change” value (vaginal tissue construct; gene C−C motif chemokine ligand 28) was −2.39 fold and the “FYB1 Expr Fold Change” value (vaginal tissue construct; gene FYN binding protein 1) was −2.398 fold. The “IFNE Fold Change” value (vaginal tissue construct; gene Interferon Epsilon) was 4.439 fold, the “IL19 Fold Change” value (vaginal tissue construct; gene Interleukin 19) was −2.2 fold and the “NLRP10 Fold Change” value (vaginal tissue construct; gene NLR family pyrin domain containing 10) was 10.11 fold. The “RNAse7 Fold Change” value (vaginal tissue construct; gene RNAse family) was 6.145 fold, the “TIAM1 Expr Fold Change” value (vaginal tissue construct; gene T cell lymphoma invasion and metastasis 1) was 2.018 fold and the “TNFAIP8 Expr Fold Change” value (vaginal tissue construct; gene TNF alpha induced protein 8) was −1.724 fold. The “TNFRSF10C Expr Fold Change” value (vaginal tissue construct; gene TNF receptor superfamily member 10c) was −2.114 fold, the “TNFRSF11B Expr Fold Change” value (vaginal tissue construct; gene TNF receptor superfamily member 11b) was −2.006 fold and the “TSPAN1 Fold Change” value (vaginal tissue construct; gene Tetraspanin 1) was −1.9 fold. For the same compound, the “TGM1 Fold Change” value (vaginal tissue construct; gene Transglutaminase 1) was 1.809 fold, the “TGM3 Fold Change” value (vaginal tissue construct; gene Transglutaminase 3) was 23.784 fold and 24 fold and the “TGM5 Fold Change” value (vaginal tissue construct; gene Transglutaminase 5) was 2.346 fold. For the same compound, the “TRIM31 Fold Change” value (vaginal tissue construct; gene Tripartite motif-containing 31) was −4.5 fold, the “VTCN1 Expr Fold Change” value (vaginal tissue construct; gene V-set domain containing T cell activation inhibitor 1) was −2.694 fold and the “WFDC2 Fold Change” value (vaginal tissue construct; gene WAP four-disulfide core domain 2) was −2.6 fold. The “WFDC5 Fold Change” value (vaginal tissue construct; gene WAP four-disulfide core domain 5) was 2.807 fold, the “ALOX12B Fold Change” value (vaginal tissue construct; gene arachidonate 12-lipoxygenase, 12R type) was 6.023 fold and the “ALOX12 Fold Change” value (vaginal tissue construct; gene arachidonate 12-lipoygenase) was 1.8 fold. For the same compound, the “ALOXE3 Fold Change” value (vaginal tissue construct; gene arachidonate lipoxygenase 3) was 2.881 fold, the “ASS1 Fold Change” value (vaginal tissue construct; gene arginosuccinate synthetase 1) was −2.4 fold and the “CLDN17 Fold Change” value (vaginal tissue construct; gene claudin 17) was 8.7 fold. The “CCDC59 Expr Fold Change” value (vaginal tissue construct; gene coiled-coil domain containing 59) was −1.956 fold, the “CSF2RB Expr Fold Change” value (vaginal tissue construct; gene colony stimulating factor 2 receptor beta common subunit) was 2.595 fold and the “CFH Expr Fold Change” value (vaginal tissue construct; gene complement factor H) was −1.681 fold. The “CNFN Fold Change” value (vaginal tissue construct; gene cornifelin) was 1.706 fold, the “CRCT1 Fold Change” value (vaginal tissue construct; gene cysteine-rich C-terminal 1) was 2.3 fold and the “DMKN Fold Change” value (vaginal tissue construct; gene dermokine) was 2.043 fold. For the same compound, the “DCS3 Fold Change” value (vaginal tissue construct; gene descmocollin 3) was 1.5 fold, the “DSC1 Fold Change” value (vaginal tissue construct; gene desmocollin 1) was 6.69 fold and the “DSC2 Fold Change” value (vaginal tissue construct; gene desmocollin 2) was 1.6 fold. The “DSG1 Fold Change” value (vaginal tissue construct; gene desmoglein 1) was 7.572 fold and 7.2 fold, the “FLG Fold Change” value (vaginal tissue construct; gene filaggrin) was 3.151 fold and the “FLG2 Fold Change” value (vaginal tissue construct; gene filaggrin family member 2) was 6.801 fold. The “GYS2 Fold Change” value (vaginal tissue construct; gene glycogen synthase 2 (liver)) was 3.1 fold, the “KPRP Fold Change” value (vaginal tissue construct; gene human keratinocyte proline rich protein) was 17.392 fold and 20.8 fold and the “IFIT5 Expr Fold Change” value (vaginal tissue construct; gene interferon induced protein with tetratricopeptide repeats 5) was −1.97 fold. For the same compound, the “IFIH1 Expr Fold Change” value (vaginal tissue construct; gene interferon induced with helicase C domain 1) was −2.099 fold, the “IRF1 Expr Fold Change” value (vaginal tissue construct; gene interferon regulatory factor 1) was −3.083 fold and the “IRF9 Expr Fold Change” value (vaginal tissue construct; gene interferon regulatory factor 9) was −1.62 fold. The “IL1RL2 Expr Fold Change” value (vaginal tissue construct; gene interleukin 1 receptor like 2) was 2.54 fold, the “IL7R Expr Fold Change” value (vaginal tissue construct; gene interleukin 7 receptor) was −2.062 fold and the “IL18BP Expr Fold Change” value (vaginal tissue construct; gene interleukin 18 binding protein) was 1.523 fold. For the same compound, the “IL23A Expr Fold Change” value (vaginal tissue construct; gene interleukin 23 subunit alpha) was 2.346 fold, the “IL33 Expr Fold Change” value (vaginal tissue construct; gene interleukin 33) was −3.314 fold and the “IL36A Expr Fold Change” value (vaginal tissue construct; gene interleukin 36 alpha) was 4.253 fold. The “IL36RN Expr Fold Change” value (vaginal tissue construct; gene interleukin 36 receptor antagonist) was 4.029 fold, the “KLK6 Fold Change” value (vaginal tissue construct; gene kallikrein related peptidase 6) was 4.063 fold and the “KLK8 Fold Change” value (vaginal tissue construct; gene kallikrein related peptidase 8) was 1.504 fold. The “KLK10 Fold Change” value (vaginal tissue construct; gene kallikrein related peptidase 10) was 2.214 fold, the “KLK12 Fold Change” value (vaginal tissue construct; gene kallikrein related peptidase 12) was 3.882 fold and the “KLK13 Fold Change” value (vaginal tissue construct; gene kallikrein related peptidase 13) was 3.278 fold. For the same compound, the “KRT1 Fold Change” value (vaginal tissue construct; gene keratin 1) was 7.122 fold and 8.7 fold, the “KRT2 Fold Change” value (vaginal tissue construct; gene keratin 2) was 1.764 fold and the “KRT20 Fold Change” value (vaginal tissue construct; gene keratin 20) was −2.992 fold. The “KRT23 Fold Change” value (vaginal tissue construct; gene keratin 23) was 1.631 fold, the “KRT24 Fold Change” value (vaginal tissue construct; gene keratin 24) was 1.699 fold and the “KRTDAP Fold Change” value (vaginal tissue construct; gene keratinocyte differentiation associated protein) was 9.891 fold and 10.1 fold. The “LCE1A Fold Change” value (vaginal tissue construct; gene late cornified envelope 1A) was 1.526 fold, the “LCE1C Fold Change” value (vaginal tissue construct; gene late cornified envelope 1C) was 2.292 fold and the “LCE1F Fold Change” value (vaginal tissue construct; gene late cornified envelope 1F) was 1.576 fold. For the same compound, the “LCE2A Fold Change” value (vaginal tissue construct; gene late cornified envelope 2A) was 4.097 fold, the “LCE2B Fold Change” value (vaginal tissue construct; gene late cornified envelope 2B) was 7.398 fold and the “LCE2C/LCE2D Fold Change” value (vaginal tissue construct; gene late cornified envelope 2D) was 10.393 fold. The “LCE3D Fold Change” value (vaginal tissue construct; gene late cornified envelope 3D) was 12.6 fold, the “LCE3E Fold Change” value (vaginal tissue construct; gene late cornified envelope 3E) was 13.5 fold and the “LCE5A Fold Change” value (vaginal tissue construct; gene late cornified envelope 5A) was 1.571 fold. For the same compound, the “LIPM Fold Change” value (vaginal tissue construct; gene lipase family member M) was 6.813 fold, the “LIPN Fold Change” value (vaginal tissue construct; gene lipase family member N) was 4.766 fold and the “LIPN1 Fold Change” value (vaginal tissue construct; gene lipin 1) was 3.23 fold. For the same compound, the “LOR Fold Change” value (vaginal tissue construct; gene loricrin) was 5.085 fold, the “LY6G6C Expr Fold Change” value (vaginal tissue construct; gene lymphocyte antigen 6 family member G6C) was 5.531 fold and the “HLA-C Expr Fold Change” value (vaginal tissue construct; gene major histocompatibility complex, class C) was −1.5 fold. For the same compound, the “HLA-B Expr Fold Change” value (vaginal tissue construct; gene major histocompatibility complex, class I, B) was −1.677 fold, the “HLA-DRA Expr Fold Change” value (vaginal tissue construct; gene major histocompatibility complex, class II, DR alpha) was −1.875 fold and the “HLA-DRB6 Expr Fold Change” value (vaginal tissue construct; gene major histocompatibility complex, class II, DR beta 6 (pseudogene)) was −1.5 fold. The “ME1 Fold Change” value (vaginal tissue construct; gene malic enzyme 1, NADP(+)-dependent cytosolic) was 2.4 fold, the “MUCL1 Fold Change” value (vaginal tissue construct; gene mucin like 1) was 1.4 fold and the “NCR3LG1 Expr Fold Change” value (vaginal tissue construct; gene natural killer cell cytotoxicity receptor 3 ligand 1) was 2.076 fold. The “NFAT5 Expr Fold Change” value (vaginal tissue construct; gene nuclear factor of activated T cells 5) was 1.924 fold, the “OLFM4 Expr Fold Change” value (vaginal tissue construct; gene olfactomedin 4) was −3.505 fold and the “PNLIPRP3 Fold Change” value (vaginal tissue construct; gene pancreatic lipase-related protein 3) was 1.4 fold. The “PLA2G2F Fold Change” value (vaginal tissue construct; gene phospholipase A2 group IIF) was 1.564 fold, the “PLA2G3 Fold Change” value (vaginal tissue construct; gene phospholipase A2 group III) was 1.953 fold and the “PLA2G4D Fold Change” value (vaginal tissue construct; gene phospholipase A2 group IVD) was 3.604 fold. The “PLA2G4E Fold Change” value (vaginal tissue construct; gene phospholipase A2 group IVE) was 2.225 fold, the “PLA2G10 Fold Change” value (vaginal tissue construct; gene phospholipase A2 group X) was −2.819 fold and the “PLAC8 Fold Change” value (vaginal tissue construct; gene placenta-specific 8) was −2.2 fold. The “PIGR Fold Change” value (vaginal tissue construct; gene polymeric immunoglobulin receptor) was −1.8 fold, the “PDCD1LG2 Expr Fold Change” value (vaginal tissue construct; gene programmed cell death 1 ligand 2) was −1.879 fold and the “RPS15A Expr Fold Change” value (vaginal tissue construct; gene ribosomal protein S15a) was −1.999 fold. The “SERPINB12 Fold Change” value (vaginal tissue construct; gene serpin family B member 12) was 4.409 fold and 4.3 fold, the “STAT4 Expr Fold Change” value (vaginal tissue construct; gene signal transducer and activator of transcription 4) was −2.315 fold and the “SPRR2G Fold Change” value (vaginal tissue construct; gene small proline rich protein 2G) was 7.539 fold. The “SPRR4 Fold Change” value (vaginal tissue construct; gene small proline rich protein 4) was 2.263 fold, the “SBSN Fold Change” value (vaginal tissue construct; gene suprabasin) was 3.488 fold and 3.4 fold and the “TLR3 Expr Fold Change” value (vaginal tissue construct; gene toll like receptor 3) was −2.566 fold. The “TRPV3 Fold Change” value (vaginal tissue construct; gene transient receptor potential cation channel subfamily V member 3) was 2.32 fold and 2.382 fold, the “UBA7 Expr Fold Change” value (vaginal tissue construct; gene ubiquitin like modifier activating enzyme 7) was −1.651 fold and the “VEGFA Fold Change” value (vaginal tissue construct; gene vascular endothelial growth factor A) was 1.2 fold. For the same compound, the “mir-23 Expr Fold Change” value (vaginal tissue construct; microRNA 23a) was 2.983 fold, the “mir-224 Expr Fold Change” value (vaginal tissue construct; microRNA 224) was 4.867 fold and the “agonist type by receptor internalization” value [1] was “full agonist”.
